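Protocol summary: plate cells (96-well), add compound at 5 concentrations, incubate 48 h, interpolate endpoints linearly. The concentration for 50% growth inhibition is given as GI50. The concentration for full growth arrest is given as TGI.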

For orientation: TGI means the concentration at which net growth stops. A lower TGI goes with more potent growth arrest. As usually defined, the GI50 is the concentration at which growth is held to half of that of the control.

Test systems include SF-539 CNS; CCRF-CEM leukemia; MCF7 breast; HT29 colon; HCT-15 colon; OVCAR-4 ovarian; NCI-H460 lung; OVCAR-3 ovarian; SNB-75 CNS; SNB-19 CNS.
What all share (assay): DTP human tumour cell line panel, 48 h

As to `O=c1c2ccccc2sc2cccc(NCCCN3CCN(CCCNc4cccc5sc6ccccc6c(=O)c45)CC3)c12`, the TGI in the experiment on SF-539 CNS, with CCRF-CEM leukemia, in the experiment on MCF7 breast, with HT29 colon, in the experiment with HCT-15 colon and in the experiment on OVCAR-4 ovarian was over 100 µM each time. The TGI in the experiment with NCI-H460 lung, with OVCAR-3 ovarian, with SNB-75 CNS and in the experiment on SNB-19 CNS was over 100 µM throughout.

With `Cc1nc2ccccc2nc1-c1ccc(N=[N+]([O-])c2ccc(-c3nc4ccccc4nc3C)cc2)cc1`, the TGI in the experiment on SF-539 CNS, with CCRF-CEM leukemia, in the experiment with MCF7 breast, with HT29 colon, in the experiment on HCT-15 colon and in the experiment with OVCAR-4 ovarian was over 100 µM in each case. The TGI in the experiment on NCI-H460 lung is over 100 µM; in the experiment with OVCAR-3 ovarian, over 100 µM; in the experiment with SNB-75 CNS, 46 µM; in the experiment with SNB-19 CNS, over 100 µM.

As for `CCN(CC)c1nc(-c2ccc(Cl)cc2Cl)nc2ccccc12`, the GI50 in the experiment with SF-539 CNS was 20.3 µM; with CCRF-CEM leukemia, 10.4 µM; in the experiment with MCF7 breast it was 22.2 µM; in the experiment on HT29 colon, 37.6 µM; in the experiment on HCT-15 colon, 19.3 µM; with OVCAR-4 ovarian, 51.6 µM. Besides, the GI50 with NCI-H460 lung is 23.9 µM; with OVCAR-3 ovarian, 15.7 µM; in the experiment with SNB-75 CNS it was 43.9 µM; in the experiment with SNB-19 CNS it was 40.8 µM. Also, the TGI is 41.9 µM in the experiment with SF-539 CNS; over 100 µM in the experiment on CCRF-CEM leukemia; over 68 µM with MCF7 breast; over 100 µM with HT29 colon; 48.9 µM with HCT-15 colon; over 100 µM in the experiment with OVCAR-4 ovarian. Further, the TGI in the experiment with NCI-H460 lung was over 79.5 µM; in the experiment on OVCAR-3 ovarian it was 47.2 µM; with SNB-75 CNS, over 100 µM; in the experiment on SNB-19 CNS it was over 100 µM.

As for `COc1ccc(-c2oc(=O)ccc2-c2cc(OC)c(OC)c(OC)c2)cc1F`, the GI50 in the experiment on SF-539 CNS is 19.8 µM; in the experiment on CCRF-CEM leukemia it was 26.6 µM; in the experiment with MCF7 breast it was 9.74 µM; in the experiment with HT29 colon, 4.93 µM; with HCT-15 colon, 5.42 µM; in the experiment with OVCAR-4 ovarian, 36.5 µM. Moreover, the GI50 was 5.43 µM in the experiment on NCI-H460 lung, 5.84 µM in the experiment with OVCAR-3 ovarian, 3.33 µM in the experiment with SNB-75 CNS and 53.2 µM in the experiment with SNB-19 CNS. Also, the TGI in the experiment on SF-539 CNS was 80.3 µM; with CCRF-CEM leukemia it was over 100 µM; in the experiment on MCF7 breast, over 100 µM; with HT29 colon, over 100 µM; in the experiment with HCT-15 colon, over 100 µM; in the experiment on OVCAR-4 ovarian it was over 100 µM. Moreover, the TGI with NCI-H460 lung was over 100 µM; in the experiment with OVCAR-3 ovarian, 71.9 µM; with SNB-75 CNS it was 36.4 µM; with SNB-19 CNS it was over 100 µM.

In the case of `COc1cc(C2c3cc4c(cc3C(O)C(CO)C2CO)OCO4)cc(OC)c1OC` (stereo unspecified), the GI50 in the experiment on SF-539 CNS is 0.335 µM; with CCRF-CEM leukemia it was 0.787 µM; with MCF7 breast, 0.355 µM; in the experiment on HT29 colon it was 0.422 µM; with HCT-15 colon it was 4.41 µM; in the experiment on OVCAR-4 ovarian, 7.6 µM. Besides, the GI50 with NCI-H460 lung was 0.463 µM; in the experiment with OVCAR-3 ovarian, 0.372 µM; in the experiment with SNB-75 CNS, 0.594 µM; in the experiment on SNB-19 CNS, 2.6 µM. The TGI is over 100 µM in the experiment with CCRF-CEM leukemia; over 100 µM in the experiment on MCF7 breast; over 100 µM with HCT-15 colon; over 100 µM in the experiment with OVCAR-4 ovarian; over 26.4 µM in the experiment on NCI-H460 lung; 1.94 µM in the experiment with OVCAR-3 ovarian. In addition, the TGI in the experiment with SNB-75 CNS and in the experiment with SNB-19 CNS was over 100 µM throughout.

Regarding `COc1ccc(C(O)c2nccn2C)c(OC)c1` (stereo unspecified), the concentration for total growth inhibition (TGI) in the experiment with SF-539 CNS, in the experiment on CCRF-CEM leukemia, with MCF7 breast, in the experiment on HT29 colon, in the experiment on HCT-15 colon and in the experiment on OVCAR-4 ovarian was over 100 µM each time. The total growth inhibition concentration (TGI) in the experiment with NCI-H460 lung, with OVCAR-3 ovarian, in the experiment on SNB-75 CNS and with SNB-19 CNS was over 100 µM each time.

Take `COc1cc(CNCCCN2C(=O)c3ccc4c5c(ccc(c35)C2=O)C(=O)N(CCCNCc2cc(OC)c(OC)c(OC)c2)C4=O)cc(OC)c1OC`: the GI50 with SF-539 CNS is 0.653 µM; in the experiment on CCRF-CEM leukemia it was 0.3 µM; in the experiment with MCF7 breast, 0.242 µM; in the experiment with HT29 colon, 0.163 µM; in the experiment on HCT-15 colon, 1.18 µM; in the experiment with OVCAR-4 ovarian, 0.0751 µM. The GI50 was 0.316 µM with NCI-H460 lung, 0.143 µM in the experiment with OVCAR-3 ovarian, 0.589 µM in the experiment on SNB-75 CNS and 0.398 µM with SNB-19 CNS. The TGI in the experiment on SF-539 CNS was found to be 1.39 µM; in the experiment with CCRF-CEM leukemia it was 4.07 µM; with MCF7 breast, 0.643 µM; in the experiment on HT29 colon, 0.933 µM; with HCT-15 colon it was 3.55 µM; in the experiment with OVCAR-4 ovarian it was 0.149 µM. Besides, the TGI in the experiment with NCI-H460 lung is 1.04 µM; in the experiment on OVCAR-3 ovarian, 0.382 µM; in the experiment with SNB-75 CNS it was 1.33 µM; in the experiment on SNB-19 CNS, 1.25 µM.

For `CCOC(=O)C(=Cc1cccc(Cl)c1)C(=O)OCC`, the GI50 with SF-539 CNS is 1.66 µM; in the experiment on MCF7 breast, 2.12 µM; in the experiment with HT29 colon, 2.39 µM; in the experiment on HCT-15 colon, 1.96 µM; in the experiment with OVCAR-4 ovarian it was 2.66 µM; in the experiment with NCI-H460 lung, 3.71 µM. Further, the GI50 with OVCAR-3 ovarian is 1.86 µM; with SNB-75 CNS it was 2.12 µM; in the experiment with SNB-19 CNS it was 2.37 µM. For the same compound, the TGI with SF-539 CNS was determined as 3.14 µM; with MCF7 breast, 8.11 µM; with HT29 colon, 5.57 µM; in the experiment with HCT-15 colon it was 5.27 µM; in the experiment on OVCAR-4 ovarian, 8.87 µM; in the experiment on NCI-H460 lung, 12.6 µM. Besides, the figures for the TGI in the experiment on OVCAR-3 ovarian, with SNB-75 CNS and with SNB-19 CNS were 3.6 µM, 7.8 µM and 6.66 µM, respectively.

As for `CCCNC(=S)/N=C/c1c(O)c2ccccc2[nH]c1=O`, the TGI in the experiment on SF-539 CNS, with CCRF-CEM leukemia, in the experiment on MCF7 breast, in the experiment with HT29 colon, with HCT-15 colon and with OVCAR-4 ovarian was over 100 µM each time. For the same compound, the TGI with NCI-H460 lung, in the experiment on OVCAR-3 ovarian, in the experiment with SNB-75 CNS and in the experiment on SNB-19 CNS was over 100 µM in each case.

The values above are taken from PubChem BioAssay (NCI).
